Data reported in US20040186273A1 (V.I. Technologies, Inc., priority 2000, published 2004).
Where two headings read alike, the source gives them in different places.

B1: peptide 96, LRVIIS, on Toyopearl resin, free amino terminal (peptide)
peptide: LRVIIS
modifications: not checked
B2: peptide 90/98, FYVFTA, on Toyopearl resin, free amino terminal (peptide)
peptide: FYVFTA
modifications: not checked
B3: peptide 85, WLYWIP, on Toyopearl resin, free amino terminal (peptide)
peptide: WLYWIP
modifications: not checked
B4: peptide 91, YFIWWE, on Toyopearl resin, free amino terminal (peptide)
peptide: YFIWWE
modifications: not checked
B5: peptide 118, TGIPII, on Toyopearl resin, free amino terminal (peptide)
peptide: TGIPII
modifications: not checked
B6: peptide 99, SNYGPY, on Toyopearl resin, free amino terminal (peptide)
peptide: SNYGPY
modifications: not checked
B7: peptide 102, WFPHFF, on Toyopearl resin, free amino terminal (peptide)
peptide: WFPHFF
modifications: not checked
B8: peptide 94, LLLVIA, on Toyopearl resin, free amino terminal (peptide)
peptide: LLLVIA
modifications: not checked
B9: peptide 93, LEIRLA, on Toyopearl resin, free amino terminal (peptide)
peptide: LEIRLA
modifications: not checked
B10: peptide 117, YWFIYI, on Toyopearl resin, free amino terminal (peptide)
peptide: YWFIYI
modifications: not checked
B11: peptide 100, PFHPG, on Toyopearl resin, free amino terminal (peptide)
peptide: PFHPG
modifications: not checked
B12: peptide 89, GFFFWW, on Toyopearl resin, free amino terminal (peptide)
peptide: GFFFWW
modifications: not checked
B13: peptide 115, VFEYIK, on Toyopearl resin, free amino terminal (peptide)
peptide: VFEYIK
modifications: not checked
B14: peptide 86, WEFYWF, on Toyopearl resin, free amino terminal (peptide)
peptide: WEFYWF
modifications: not checked
B15: peptide 119, HKEQGA, on Toyopearl resin, free amino terminal (peptide)
peptide: HKEQGA
modifications: not checked
B16: peptide 114, QWWFII, on Toyopearl resin, free amino terminal (peptide)
peptide: QWWFII
modifications: not checked
B17: peptide 113, RWIISL, on Toyopearl resin, free amino terminal (peptide)
peptide: RWIISL
modifications: not checked
B18: peptide 84, LLIWIP, on Toyopearl resin, free amino terminal (peptide)
peptide: LLIWIP
modifications: not checked
B19: peptide 87, YVFNWY, on Toyopearl resin, free amino terminal (peptide)
peptide: YVFNWY
modifications: not checked
B20: peptide 112, IFFWIK, on Toyopearl resin, free amino terminal (peptide)
peptide: IFFWIK
modifications: not checked
B21: peptide 95, SLEEYV, on Toyopearl resin, free amino terminal (peptide)
peptide: SLEEYV
modifications: not checked
B22: peptide 92, SFPYYY, on Toyopearl resin, free amino terminal (peptide)
peptide: SFPYYY
modifications: not checked
B23: peptide 88, LAWFWR, on Toyopearl resin, free amino terminal (peptide)
peptide: LAWFWR
modifications: not checked

Columns and labels:
[1] = target: radiolabelled octapeptide repeat peptide *acetyl…amide
[2] = target: radiolabelled octapeptide repeat *acetyl[…]amide (SEQ ID NO:2) (Homo sapiens, UniProt P04156); settings: for % unbound [14C]: pH 7.4
[3] = target: radiolabelled octapeptide repeat peptide *acetyl…amide; remark: listed apart in the source

Row | Molecule | % unbound [14C] [2] [%] | % unbound [14C] [3] [%] | also measured
1 | peptide 97, QLGHQW, on Toyopearl resin, free amino terminal | – | – | % unbound [14C] [1]: 85%
2 | HKEQGA [Peptide 119] | 91 | – | –
3 | WIPPYN [Peptide 101] | 84 | – | –
4 | SFPYYY [Peptide 92] | 90 | – | –
5 | RWIISL [Peptide 113] | 89 | – | –
6 | WFPHFF [Peptide 102] | 64 | – | –
7 | LLIWIP [Peptide 84] | 89 | – | –
8 | WLVWIA [Peptide 116] | 85 | – | –
9 | peptide 116, WLVWIA, on Toyopearl resin, free amino terminal | – | – | % unbound [14C] [1]: 85%
10 | PFHPG [Peptide 100] | 88 | – | –
11 | FYVFTA [90/98] | 82 | – | –
12 | VFEYIK [Peptide 115] | 87 | – | –
13 | IQIWIF [Peptide 110] | 85 | – | –
14 | YFIWWE [Peptide 91] | 58 | – | –
15 | WEFYWF [Peptide 86] | 76 | – | –
16 | LWWLFV [Peptide 111] | 85 | – | –
17 | WLYWIP [Peptide 85] | 90 | – | –
18 | peptide 110, IQIWIF, on Toyopearl resin, free amino terminal | – | – | % unbound [14C] [1]: 85%
19 | YWFIYI [Peptide 117] | 83 | – | –

Row | Molecule | % unbound [14C] [2] [%] | % unbound [14C] [3] [%] | also measured
20 | SNYGPY [Peptide 99] | 79 | – | –
21 | QWWFII [Peptide 114] | 87 | – | –
22 | TGIPII [Peptide 118] | 88 | – | –
23 | peptide 101, WIPPYN, on Toyopearl resin, free amino terminal | – | – | % unbound [14C] [1]: 84%
24 | QLGHQW [Peptide 97] | 85 | – | –
25 | IFFWIK [Peptide 112] | 77 | – | –
26 | LAWFWR [Peptide 88] | 90 | – | –
27 | SLEEYV [Peptide 95] | 89 | – | –
28 | LLLVIA [Peptide 94] | 83 | – | –
29 | GFFFWW [Peptide 89] | 23 | – | binding of octapeptide to resin (in words) [2]: highest affinity binder
30 | LRVIIS [Peptide 96] | 90 | – | –
31 | peptide 111, LWWLFV, on Toyopearl resin, free amino terminal | – | – | % unbound [14C] [1]: 85%
32 | LEIRLA [Peptide 93] | 96 | – | –
33 | YVFNWY [Peptide 87] | 45 | – | –
34 | B1 | – | 90 | –
35 | B2 | – | 82 | –
36 | B3 | – | 90 | –
37 | B4 | – | 58 | –
38 | B5 | – | 88 | –

Row | Molecule | % unbound [14C] [2] [%] | % unbound [14C] [3] [%] | also measured
39 | B6 | – | 79 | –
40 | B7 | – | 64 | –
41 | B8 | – | 83 | –
42 | B9 | – | 96 | –
43 | B10 | – | 83 | –
44 | B11 | – | 88 | –
45 | B12 | – | 23 | –
46 | B13 | – | 87 | –
47 | B14 | – | 76 | –
48 | B15 | – | 91 | –
49 | B16 | – | 87 | –
50 | B17 | – | 89 | –
51 | B18 | – | 89 | –
52 | B19 | – | 45 | –
53 | B20 | – | 77 | –
54 | B21 | – | 89 | –
55 | B22 | – | 90 | –
56 | B23 | – | 90 | –
